Data from patent US9562272B2, “Screening method for therapeutic agent for chondropathy and modified chondrocyte for treatment of chondropathy” (KYOTO UNIVERSITY, priority 2011, dated 2017).

Biological target: T1, SIK3 (Homo sapiens, UniProt Q9Y2K2)
T1 construct: expressed in transfected cells; host or cells: HEK293
Experiment: GAL4-Luc/TORC2 dual-luciferase reporter screening system for SIK3 activity in HEK293 cells
Format: cell-based
Details: HEK293 cells transfected with pM-TORC2 and pTarget-SIK3; test substance added 24 h later, treated for 6 hours; DMSO control
Protocol: Into HEK293 cells, a reporter vector GAL4-Luc (firefly luciferase: pTAL-5XGAL4 (150 ng)), an endogenous reporter vector (Renilla luciferase: pRL-Int (−) (30 ng)), a vector with or without the expression of TORC (pM-TORC2 or pM only (50 ng)) and a vector with or without the expression of SIK3 (pTarget-SIK3 or pTarget only (50 ng)) were introduced using Lipofectamine 2000. Twenty-four hours later, a test substance was added and the cells were further treated for 6 hours. The measurement of the reporter activity was performed using Dual-Luciferase assay kit made by Promega. As the test substance, staurosporine (STS) or a SIK2 inhibitor (Compound C) was used. As a control, DMSO alone was added.
In FIG. 7, the vertical axis represents the activity of TORC2, which is the activity of pM-TORC2 that was calculated by dividing the firefly luciferase activity by the Renilla luciferase activity and is expressed as a multiple of the activity of pM. The white bars and the black bars represent the activities of TORC2 with the absence and presence of SIK3, respectively. […] As is apparent from FIG. 7, the inhibiting activity of staurosporine (STS) on SIK3 was detected.

T1 sequence (Q9Y2K2 whole entry): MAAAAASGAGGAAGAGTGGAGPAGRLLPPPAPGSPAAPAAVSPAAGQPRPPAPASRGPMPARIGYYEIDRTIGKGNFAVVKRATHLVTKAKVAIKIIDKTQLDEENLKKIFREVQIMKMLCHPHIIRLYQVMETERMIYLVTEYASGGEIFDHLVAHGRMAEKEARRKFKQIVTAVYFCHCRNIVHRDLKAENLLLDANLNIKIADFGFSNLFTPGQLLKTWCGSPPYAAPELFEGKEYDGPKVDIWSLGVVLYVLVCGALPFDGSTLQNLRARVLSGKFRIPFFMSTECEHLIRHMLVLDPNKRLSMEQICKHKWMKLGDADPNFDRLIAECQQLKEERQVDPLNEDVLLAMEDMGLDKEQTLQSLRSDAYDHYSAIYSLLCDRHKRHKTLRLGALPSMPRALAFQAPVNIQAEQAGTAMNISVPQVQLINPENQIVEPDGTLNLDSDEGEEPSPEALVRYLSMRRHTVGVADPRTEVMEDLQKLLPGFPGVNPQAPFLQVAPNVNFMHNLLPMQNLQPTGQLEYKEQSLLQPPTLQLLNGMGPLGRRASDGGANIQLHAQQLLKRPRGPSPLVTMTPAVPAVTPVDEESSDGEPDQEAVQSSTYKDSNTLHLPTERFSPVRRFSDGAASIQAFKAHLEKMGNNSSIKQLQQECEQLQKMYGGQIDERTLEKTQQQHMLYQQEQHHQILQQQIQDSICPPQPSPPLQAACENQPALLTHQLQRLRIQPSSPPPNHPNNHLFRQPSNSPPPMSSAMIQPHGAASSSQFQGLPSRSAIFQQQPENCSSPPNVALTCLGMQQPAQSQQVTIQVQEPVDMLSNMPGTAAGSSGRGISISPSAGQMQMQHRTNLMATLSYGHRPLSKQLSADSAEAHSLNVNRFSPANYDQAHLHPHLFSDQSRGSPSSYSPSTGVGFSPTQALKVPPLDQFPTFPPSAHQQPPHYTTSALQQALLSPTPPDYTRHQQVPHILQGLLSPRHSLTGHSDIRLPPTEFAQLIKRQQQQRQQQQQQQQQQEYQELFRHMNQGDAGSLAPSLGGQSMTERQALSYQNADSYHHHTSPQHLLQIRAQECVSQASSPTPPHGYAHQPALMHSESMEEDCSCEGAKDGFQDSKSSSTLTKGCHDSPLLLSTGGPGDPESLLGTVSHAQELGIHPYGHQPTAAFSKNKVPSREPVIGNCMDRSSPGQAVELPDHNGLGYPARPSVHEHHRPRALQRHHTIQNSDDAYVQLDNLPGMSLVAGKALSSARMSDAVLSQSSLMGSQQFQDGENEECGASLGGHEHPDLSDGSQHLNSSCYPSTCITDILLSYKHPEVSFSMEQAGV

CN[C@@H]1C[C@H]2O[C@@](C)([C@@H]1OC)n1c3ccccc3c3c4c(c5c6ccccc6n2c5c31)C(=O)NC4 [staurosporine]
inhibiting activity on SIK3 (activity of TORC2 with absence vs presence of SIK3): detected
